Blank lines part the entries; values can stand above or below the compound they belong to. Numbered stars: 1 amine (or outer) side, 2 acyl side, 3 side chain; on linkers, the order of the positions; unused ones are H or OH. Bridge positions count the residues as written; N and C are the ends. Square brackets hold non-standard residues; d marks the D form. Peptide text beside a SMILES is read from it. Trimesoyl = O=C(c1cc(C(=O)[*:2])cc(C(=O)[*:3])c1)[*:1]; Phg = N[C@H](C(=O)O)c1ccccc1; Nle = CCCC[C@H](N)C(=O)O; Dap = NC[C@H](N)C(=O)O
Key:
[1] = target: T1, protein phosphatase PTP1B (Homo sapiens, UniProt P18031); assay: Fluorescence anisotropy specificity test, PTP1B; format: binding; conditions: FA
T1 sequence (P18031 1-435): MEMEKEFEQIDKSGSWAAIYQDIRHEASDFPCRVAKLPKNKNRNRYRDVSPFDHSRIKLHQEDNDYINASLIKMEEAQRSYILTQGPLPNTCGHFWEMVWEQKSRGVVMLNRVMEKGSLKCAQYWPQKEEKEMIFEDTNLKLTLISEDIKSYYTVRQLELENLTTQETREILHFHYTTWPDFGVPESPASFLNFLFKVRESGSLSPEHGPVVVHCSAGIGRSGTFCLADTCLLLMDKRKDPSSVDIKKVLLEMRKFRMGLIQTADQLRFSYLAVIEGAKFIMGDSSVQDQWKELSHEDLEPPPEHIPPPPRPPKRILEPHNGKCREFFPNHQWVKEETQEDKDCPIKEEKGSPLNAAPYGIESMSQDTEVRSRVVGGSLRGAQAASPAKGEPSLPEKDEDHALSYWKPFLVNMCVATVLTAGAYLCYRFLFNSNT

HIV capsid protein = HIV capsid protein (Human immunodeficiency virus type 1 group M subtype B, UniProt P04591); assay: Fluorescence anisotropy specificity test, HIV capsid protein; format: binding; conditions: FA
WEHI-13VAR fibroblasts = format: cell-based
GST-BRCT fusion protein = conditions: FA
[2] = target: glutathione-S-transferase-PLCγ SH2 domain fusion (GST-SH2); assay: Fluorescence anisotropy specificity test, GST-SH2; format: binding; conditions: FA, Fig. S4
[3] = target: bovine serum albumin (BSA) (Bos taurus, UniProt P02769); assay: Fluorescence anisotropy specificity test, BSA; format: binding
Chain of bovine serum albumin (BSA) (P02769 25-607): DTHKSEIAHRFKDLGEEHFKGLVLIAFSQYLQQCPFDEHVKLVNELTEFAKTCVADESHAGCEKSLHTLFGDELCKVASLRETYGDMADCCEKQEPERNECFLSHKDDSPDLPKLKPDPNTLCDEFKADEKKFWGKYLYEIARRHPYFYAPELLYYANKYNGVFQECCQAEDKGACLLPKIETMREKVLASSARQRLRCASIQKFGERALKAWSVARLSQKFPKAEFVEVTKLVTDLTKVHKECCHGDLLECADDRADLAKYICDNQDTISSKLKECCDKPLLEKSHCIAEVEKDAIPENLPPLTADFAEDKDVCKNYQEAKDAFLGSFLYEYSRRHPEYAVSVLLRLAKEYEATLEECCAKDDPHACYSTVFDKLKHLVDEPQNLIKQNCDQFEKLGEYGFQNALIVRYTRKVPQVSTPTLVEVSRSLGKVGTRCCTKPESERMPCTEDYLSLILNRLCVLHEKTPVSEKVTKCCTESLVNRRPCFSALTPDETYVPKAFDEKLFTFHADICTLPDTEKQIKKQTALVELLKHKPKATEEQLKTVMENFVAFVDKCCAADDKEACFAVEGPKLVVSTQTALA

TNFα = TNFα (Homo sapiens, UniProt P01375); assay: Fluorescence anisotropy binding of resynthesized FITC-labeled peptides; conditions: resynthesized FITC-labeled peptide, FA analysis, Fig. S3
Chain of TNFα (P01375 77-233 limits assumed): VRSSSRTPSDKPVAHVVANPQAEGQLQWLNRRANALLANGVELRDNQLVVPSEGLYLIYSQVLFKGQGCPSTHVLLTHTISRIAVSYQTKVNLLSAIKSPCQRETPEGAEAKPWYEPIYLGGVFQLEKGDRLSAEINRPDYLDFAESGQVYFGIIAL

Compound: C[C@H]1NC(=O)[C@H](Cc2ccc(O)cc2)NC(=O)[C@H](c2ccccc2)NC(=O)c2cc3cc(c2)C(=O)NC[C@@H](C(N)=O)NC(=O)[C@H](Cc2c[nH]cn2)NC(=O)[C@@H](CCCCN)NC(=O)CNC(=O)[C@@H](Cc2ccccc2)NC(=O)[C@H](Cc2ccc(O)cc2)NC(=O)[C@H](CCCCNC3=O)NC1=O [Anticachexin C1, bicyclo(Phg-Tyr-D-Ala-Lys-Tyr-D-Phe-Gly-D-Lys-His-Dap)] ([Phg]Y[dA]KY[dF]G[dK]H[Dap]-NH2; linker N-4-10 via Trimesoyl; C-terminus assumed)
binding to PTP1B [1]: not to any of the other proteins | binding to HIV capsid protein (HIV capsid protein): not to any of the other proteins | LD50 of TNFα in the presence of 50 μM Anticachexin C1 (WEHI-13VAR fibroblasts; TNFα 0-250 ng/mL, fixed 50 μM Anticachexin C1, MTT, Fig. S6): 1.8 ng/mL | protection of cells from TNFα-induced cell death (WEHI-13VAR fibroblasts; TNFα 0.04 ng/ml, actinomycin-D, peptide 0-25 μM, MTT, Fig. 4c): protected the cells from TNFα-induced cell death in a concentration-dependent manner | binding to GST-BRCT fusion protein (GST-BRCT fusion protein): not to any of the other proteins | KD for GST-SH2 [2]: not to any of the other proteins | Kd [3]: ~34 µM

Kd ([2]; read-out: KD for GST-SH2): 1.5 µM | Kd [3]: 7.4 µM
Compound: CCCC[C@@H]1NC(=O)[C@@H]2CCCCNC(=O)c3cc(cc(c3)C(=O)N[C@@H](C)C(=O)N[C@H](Cc3ccccc3)C(=O)N[C@@H](Cc3c[nH]c4ccccc34)C(=O)N[C@H]([C@H](C)O)C(=O)N[C@@H](CCC(N)=O)C(=O)N2)C(=O)NC[C@@H](C(N)=O)NC(=O)[C@H](Cc2c[nH]cn2)NC(=O)[C@H](C)NC(=O)[C@@H](CC(C)C)NC1=O [Anticachexin C2, bicyclo(Ala-D-Phe-Trp-D-Thr-Gln-Lys-Nle-D-Leu-Ala-His-Dap)] (A[dF]W[dT]QK[Nle][dL]AH[Dap]-NH2; linker N-6-11 via Trimesoyl; C-terminus assumed)

KD for TNFα (TNFα): no detectable binding
Compound: Bicyclo(Arg-Arg-Arg-Arg-Nal-Phe-Dap-Ser-D-Val-Pro-pTyr-His-Dap)

Compound: TNFα
LD50 of TNFα in the absence of TNFα inhibitor (WEHI-13VAR fibroblasts; TNFα 0-250 ng/mL, MTT, Fig. S6): 0.46 ng/mL
